In ChEMBL document CHEMBL1201862, “PubChem BioAssay data set” (2004):
Active and inactive are the calls of the source.

What was measured:
Major prion protein = Major prion protein (Homo sapiens, UniProt P04156); format: functional, cell-based
[1] = target: T1, Rac GTPase-activating protein 1 (Homo sapiens, UniProt Q9H0H5); test: blockers of MgcRacGAP-driven Rac1 GTP hydrolysis – biochemical, ADP Hunter fluorescence, primary and confirmatory, confirmation (AID 624330); format: functional
T1 sequence (Q9H0H5 whole entry): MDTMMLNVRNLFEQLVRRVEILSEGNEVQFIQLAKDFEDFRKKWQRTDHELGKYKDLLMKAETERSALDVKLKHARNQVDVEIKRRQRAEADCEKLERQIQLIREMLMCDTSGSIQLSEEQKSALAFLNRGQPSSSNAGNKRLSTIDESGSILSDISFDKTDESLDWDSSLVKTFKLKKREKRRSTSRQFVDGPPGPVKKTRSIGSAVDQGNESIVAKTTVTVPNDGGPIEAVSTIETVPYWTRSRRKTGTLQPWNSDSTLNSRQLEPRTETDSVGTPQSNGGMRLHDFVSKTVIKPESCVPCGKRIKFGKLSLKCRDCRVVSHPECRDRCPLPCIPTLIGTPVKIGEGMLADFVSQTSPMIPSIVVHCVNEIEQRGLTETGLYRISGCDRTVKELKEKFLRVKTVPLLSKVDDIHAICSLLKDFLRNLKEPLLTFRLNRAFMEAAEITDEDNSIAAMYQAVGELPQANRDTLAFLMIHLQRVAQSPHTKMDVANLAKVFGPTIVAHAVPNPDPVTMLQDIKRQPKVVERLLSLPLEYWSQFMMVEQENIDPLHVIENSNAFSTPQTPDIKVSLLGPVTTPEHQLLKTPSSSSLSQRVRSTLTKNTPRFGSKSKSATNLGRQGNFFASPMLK

[2] = viability loss in CEM21 cells – cell-based, CellTiter-Glo luminescence, cherry-picked, cytotoxicity control for viral fusion inhibitor project, dose response (AID 652042); format: functional;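 further: potency for signal decrease meaning cytotoxicity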
[3] = blockers of HIV-1 envelope-mediated cell-cell fusion – cherry-pick, dose response (AID 652057); format: functional, cell-based
[4] = off-target signal loss in HeLa-CEM21 co-culture – HeLa F-luc CTL cells, cherry-picked, counter-screen for HIV-1 Env fusion inhibitor project, dose response (AID 652040); format: functional, cell-based;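 further: potency for signal decrease marking cytotoxic or nonspecific inhibition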
[5] = HIV-1 AD8 envelope cell-cell fusion blockers – cherry-pick, dose response (AID 652062); format: functional, cell-based;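 further: luciferase signal from cell-cell fusion driven by HIV-1 clade B AD8 Env; potency is for inhibitors of fusion seen as a drop in luminescence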
[6] = blockers of HIV-1 ZM109 envelope-driven cell-cell fusion – HeLa effector, CEM target cells, luciferase, cherry-pick, dose response (AID 652058); format: functional, cell-based;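 further: luciferase signal from HIV-1 Env mediated cell-cell fusion of effector and target cells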
[7] = target: 1-phosphatidylinositol 4,5-bisphosphate phosphodiesterase beta-3 (Homo sapiens, UniProt Q01970); test: Fluorescence-based biochemical high throughput dose response assay to identify inhibitors of phospholipase C isozymes (PLC-B3).
[8] = target: 1-phosphatidylinositol 4,5-bisphosphate phosphodiesterase gamma-1 (Homo sapiens, UniProt P19174); test: Counterscreen for inhibitors of phospholipase C isozymes (PLC-B3): Fluorescence-based biochemical high throughput dose response assay to identify inhibitors of phospholipase C isozymes (PLC-gamma1).
[9] = target: T2, RNA-binding protein pos-1 (Caenorhabditis elegans, UniProt G5EF15); test: disruptors of C. elegans POS-1 RNA interaction – biochemical, fluorescence polarization, dose response (AID 1964);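 further: purified POS-1 fused to maltose binding protein made in E. coli; potency of compounds blocking POS-1 binding to fluorescent RNA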
T2 sequence (G5EF15 whole entry): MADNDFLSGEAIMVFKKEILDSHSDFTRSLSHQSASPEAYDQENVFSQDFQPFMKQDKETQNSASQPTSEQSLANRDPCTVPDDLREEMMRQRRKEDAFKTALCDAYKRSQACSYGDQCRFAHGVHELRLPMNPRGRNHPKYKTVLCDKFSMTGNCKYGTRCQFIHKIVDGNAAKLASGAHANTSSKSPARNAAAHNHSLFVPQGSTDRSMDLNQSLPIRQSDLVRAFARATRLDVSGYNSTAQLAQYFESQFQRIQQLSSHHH

[10] = Counterscreen for activators of the function of SWI/SNF related, matrix associated, actin dependent regulator of chromatin, subfamily a, member 2 (SMARCA2, BRM): Luminescence-based cell-based high throughput dose response assay to identify non-selective compounds using the VP16 reporter assay.; format: functional
[11] = target: T3, Zinc finger protein mex-5 (Caenorhabditis elegans, UniProt Q9XUB2); test: potency of MEX-5 RNA-binding blockers – biochemical, C. elegans, fluorescence polarization, dose response (AID 1960)
T3 sequence (Q9XUB2 whole entry): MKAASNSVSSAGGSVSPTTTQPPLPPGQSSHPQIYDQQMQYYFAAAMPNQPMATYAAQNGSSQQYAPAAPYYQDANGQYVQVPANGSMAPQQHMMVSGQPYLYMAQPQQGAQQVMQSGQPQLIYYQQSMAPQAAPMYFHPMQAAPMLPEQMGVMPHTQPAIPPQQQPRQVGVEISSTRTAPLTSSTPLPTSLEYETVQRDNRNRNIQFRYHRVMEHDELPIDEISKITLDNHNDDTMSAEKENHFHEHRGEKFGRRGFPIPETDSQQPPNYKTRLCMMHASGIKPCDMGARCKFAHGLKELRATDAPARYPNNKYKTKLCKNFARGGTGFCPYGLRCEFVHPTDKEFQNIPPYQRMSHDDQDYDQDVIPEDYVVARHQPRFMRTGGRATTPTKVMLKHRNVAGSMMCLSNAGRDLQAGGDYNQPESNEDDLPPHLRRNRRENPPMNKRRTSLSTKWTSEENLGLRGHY

[12] = target: SWI/SNF-related matrix-associated actin-dependent regulator of chromatin subfamily A member 2 (Homo sapiens, UniProt P51531); test: Luminescence-based cell-based high throughput dose response assay to identify activators of the function of SWI/SNF related, matrix associated, actin dependent regulator of chromatin, subfamily a, member 2 (SMARCA2, BRM).; format: functional
HeLa = test: viability loss in HeLa cells – cell-based, ATP luminescence, cherry-pick samples, cytotoxicity control, dose response (AID 687004); format: functional; settings: Homo sapiens
[13] = Luminescence Cell-Based Dose Response HTS to Identify Inhibitors of 5'UTR Stem-Loop Driven Prion Protein mRNA Translation in H4 Neuroglioblastoma Cells. [Related pubchem assays: 1827 (Project Summary), 1813 (Primary HTS)]; format: functional
[14] = alpha-synuclein stem-loop luciferase translation blockers – H4 neuroglioma cells, luminescence, confirmation (AID 1988); format: functional, cell-based
[15] = luciferase reporter signal suppression in cells – H4 neuroglioma cells, luminescence, dose response (AID 1990); format: functional, cell-based
[16] = target: Arf-GAP with SH3 domain, ANK repeat and PH domain-containing protein 1 (Homo sapiens, UniProt Q9ULH1); format: functional;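 further: biochemical fluorescence polarization dose–response screen measuring inhibition of ASAP1; ASAP1 GAP domain stimulating GTP hydrolysis by truncated human ARF1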
Vero = test: viability loss in Vero cells – cell-based, plate reader, cherry-pick samples, cytotoxicity control, dose response (AID 687020); format: functional; settings: Chlorocebus sabaeus
H9c2 = test: cells; format: functional, cell-based; settings: Rattus norvegicus, H9c2, Myocardium;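 further: confirmatory concentration-response retest of ultra-high-throughput screening hits for modulation of myocardial damage; cell death induced by hydrogen peroxide oxidative stress; compound pretreatment for 60 min then peroxide exposure for 2 h; potency is for protecting the cells against peroxide damage rather than for killing them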
Paired box protein Pax-8 = Paired box protein Pax-8 (Homo sapiens, UniProt Q06710); test: PAX8 transcriptional activity inhibition in RMG-I – RMG-I cells, luciferase, cherry-pick, dose response (AID 687027); format: functional, cell-based;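 further: luciferase reporter driven by Pax8 target thyroperoxidase promoter measured by SteadyGlo luminescence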
[17] = general cell-killing toxicity readout – plate reader, dry powder samples, cytotoxicity control for PAX8 inhibitor project, dose response (AID 743021); format: functional, cell-based

CC(C)c1nc(SCC(=O)Nc2ccc(N(C)C)cc2)c2ccccc2n1
IC50 (cells): 58.2 µM (inactive)
IC50 (Major prion protein): 2.94 µM (active)
IC50 [1]: 196 µM (active)

COC(=O)N1[C@H](C)C=C[C@]1(Cc1ccccc1)C(=O)NCCCNc1ncc(C(F)(F)F)cc1Cl
AC50 [2]: 48.6 µM (active)
AC50 [3]: 3.42 µM (active)
AC50 [4]: 6.96 µM (active)
AC50 [5]: 11.9 µM (active)
AC50 [6]: 6.11 µM (active)

CC(C)(C)C1CCC(C(=O)Nc2ccccc2)CC1 (stereo unspecified)
IC50 [7]: > 122 µM (inactive)
IC50 [8]: > 122 µM (inactive)

CCCCNC(=O)c1cc2c(=O)n3cccc(C)c3nc2n(Cc2ccncc2)c1=N
EC50 [9]: 24.3 µM (inconclusive)
EC50 [10]: > 91.1 µM (inactive)
EC50 [11]: 39.6 µM (inconclusive)
EC50 [12]: > 91.1 µM (inactive)

N=C(N)NS(=O)(=O)c1ccc(NC(=S)NC(=O)c2ccc3c(c2)OCO3)cc1
IC50 (cells): > 138 µM (inactive)
IC50 (Major prion protein): 15.1 µM (inactive)

Cc1ccc2nc(C)c3c(c2c1)OC(C(C)(Cl)Br)C3 (stereo unspecified)
AC50 (HeLa): > 52 µM (inactive)

NS(=O)(=O)c1ccc(CCNc2nc3c(-c4cccc(F)c4)nnn3c3ccccc23)cc1
EC50 [13]: > 120 µM (not active)
EC50 [14]: > 120 µM (not active)
EC50 [15]: > 120 µM (not active)
IC50 [16]: 11.2 µM (inactive)

COc1cccc(NC(=O)COc2cccc3c2CCNC3=O)c1
AC50 (Vero): 37.2 µM (active)
IC50 (H9c2): > 79 µM (inactive)

CC1(C)CC(=O)C=C(C#CC2(O)CCCCC2)C1
AC50 (Paired box protein Pax-8): 4.34 µM (active)
AC50 [17]: 64.8 µM (active)

Cc1ccc(C)c(NC(=O)CN2C(=O)C3CC=CCC3C2=O)c1 (stereo unspecified)
AC50 (Vero): 35.8 µM (active)
